In the supplement of paper PMC6045584:
± gives the standard deviation of the averaged measurements.

Assays:
CRIZOTINIB = compound: C[C@@H](Oc1cc(-c2cnn(C3CCNCC3)c2)cnc1N)c1c(Cl)ccc(F)c1Cl [CRIZOTINIB]; experiment: surviving fraction relative to DMSO-only wells; higher = less growth inhibition; conditions: exposure time: 5 days
Procedure, shortened: (§1)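 Continuous five-day exposure to inhibitors at 0.5, 1, 5, 10, 50, 100, 500 and 1000 nM started 24 hours after log-phase tumour cell lines were seeded at 250–500 cells per well in 384-well plates. Luminescence was read after 10 minutes at room temperature. Viability is given as surviving fraction, meaning CellTiter-Glo luminescence normalised to the median of DMSO-only wells.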

OLAPARIB = compound: O=C(c1cc(Cc2n[nH]c(=O)c3ccccc23)ccc1F)N1CCN(C(=O)C2CC2)CC1 [OLAPARIB]; experiment: as above; conditions: exposure time: 5 days
Procedure, shortened: as §1

Test System | surviving fraction (CRIZOTINIB; 0.5 nM) | surviving fraction (CRIZOTINIB; 1 nM) | surviving fraction (CRIZOTINIB; 5 nM) | surviving fraction (CRIZOTINIB; 10 nM) | surviving fraction (CRIZOTINIB; 50 nM) | surviving fraction (CRIZOTINIB; 100 nM) | surviving fraction (CRIZOTINIB; 1000 nM) | surviving fraction (OLAPARIB; 0.5 nM) | surviving fraction (OLAPARIB; 1 nM) | surviving fraction (OLAPARIB; 5 nM) | surviving fraction (OLAPARIB; 10 nM) | surviving fraction (OLAPARIB; 50 nM) | surviving fraction (OLAPARIB; 100 nM) | surviving fraction (OLAPARIB; 500 nM) | surviving fraction (OLAPARIB; 1000 nM) | surviving fraction (CRIZOTINIB; 500 nM)
MDAMB436 BREAST | 1.01 ± 0.032 | 0.97 ± 0.11 | 1.02 ± 0.086 | 1.03 ± 0.13 | 0.965 ± 0.11 | 1.07 ± 0.022 | 0.916 ± 0.1 | 0.888 ± 0.1 | 0.878 ± 0.08 | 0.806 ± 0.056 | 0.795 ± 0.039 | 0.651 ± 0.011 | 0.606 ± 0.022 | 0.537 ± 0.022 | 0.469 ± 0.031 | 
MDAMB453 BREAST | 1.1 ± 0.049 | 1.06 ± 0.064 | 1.17 ± 0.079 | 1.14 ± 0.12 |  | 1.11 ± 0.039 | 0.803 ± 0.043 | 0.989 ± 0.063 | 1 ± 0.036 | 0.989 ± 0.07 | 0.964 ± 0.059 | 0.966 ± 0.042 | 0.936 ± 0.018 | 1.03 ± 0.025 | 0.916 ± 0.025 | 0.844 ± 0.042
MDAMB468 BREAST | 1.08 ± 0.018 | 1.12 ± 0.072 | 1.11 ± 0.023 | 1.1 ± 0.094 | 1.16 ± 0.029 | 1.06 ± 0.015 | 0.276 ± 0.007 | 0.928 ± 0.045 | 0.907 ± 0.026 | 0.935 ± 0.025 | 0.942 ± 0.029 | 0.861 ± 0.031 | 0.849 ± 0.049 | 0.835 ± 0.04 | 0.595 ± 0.047 | 0.666 ± 0.039
MFM223 BREAST | 1.21 ± 0.058 | 1.2 ± 0.019 | 1.21 ± 0.058 | 1.11 ± 0.033 | 1.07 ± 0.058 |  | 1.084 ± 0.0027 | 1.13 ± 0.02 | 1.14 ± 0.1 | 1.13 ± 0.041 | 1.09 ± 0.085 | 0.87 ± 0.029 | 0.787 ± 0.037 | 0.748 ± 0.052 | 0.712 ± 0.025 | 1.07 ± 0.011
MG63 BONE | 1.05 ± 0.04 | 1.07 ± 0.053 |  | 1.11 ± 0.043 | 1.07 ± 0.051 | 1 ± 0.052 | 0.743 ± 0.031 | 1.03 ± 0.034 | 1.061 ± 0.0049 | 1.06 ± 0.031 | 1.06 ± 0.033 | 1.023 ± 0.001 | 1.024 ± 0.01 | 0.939 ± 0.027 | 0.879 ± 0.019 | 0.827 ± 0.034
MHM BONE | 1.03 ± 0.037 | 1.02 ± 0.034 | 1.09 ± 0.053 | 1.1 ± 0.047 | 1.07 ± 0.02 | 1.05 ± 0.021 | 0.884 ± 0.031 | 1.001 ± 0.0057 | 1.02 ± 0.014 | 1.04 ± 0.022 | 1.02 ± 0.021 | 1.1 ± 0.018 | 1.052 ± 0.0081 | 1.04 ± 0.018 | 1.02 ± 0.028 | 0.96 ± 0.011
NCIH441 LUNG | 1.23 ± 0.069 | 1.2 ± 0.067 | 1.09 ± 0.038 | 1.12 ± 0.043 | 1.04 ± 0.045 | 0.967 ± 0.089 | 0.83 ± 0.16 | 1.02 ± 0.14 | 1.11 ± 0.052 | 0.998 ± 0.034 | 1.06 ± 0.068 | 1.02 ± 0.042 | 0.98 ± 0.037 | 0.98 ± 0.064 | 1.01 ± 0.042 | 1.02 ± 0.058
NOS1 BONE | 1.03 ± 0.12 | 1.13 ± 0.07 | 1.11 ± 0.044 | 1.23 ± 0.2 | 1.11 ± 0.043 | 1.69 ± 0.86 | 0.484 ± 0.051 | 1.09 ± 0.13 | 0.985 ± 0.096 | 0.981 ± 0.063 | 0.999 ± 0.079 | 0.828 ± 0.062 | 0.773 ± 0.049 | 0.553 ± 0.065 | 0.521 ± 0.071 | 0.69 ± 0.036
NY BONE | 1.07 ± 0.052 | 1.06 ± 0.047 | 1.12 ± 0.041 | 1.09 ± 0.038 | 1.08 ± 0.035 | 1.02 ± 0.021 | 0.577 ± 0.018 | 1.01 ± 0.016 | 1.03 ± 0.013 | 1.05 ± 0.039 | 1.05 ± 0.061 | 1.09 ± 0.031 | 1.06 ± 0.055 | 0.95 ± 0.022 | 0.849 ± 0.04 | 0.883 ± 0.026
OS25HAL BONE | 1.06 ± 0.031 | 1.01 ± 0.028 |  |  |  |  | 0.326 ± 0.016 | 1.01 ± 0.015 | 1.01 ± 0.033 | 1.04 ± 0.015 | 1.02 ± 0.025 | 1.05 ± 0.019 | 1.01 ± 0.017 | 1.005 ± 0.0085 | 0.99 ± 0.012 | 0.929 ± 0.098
OSHN BONE | 1.11 ± 0.026 | 1.12 ± 0.035 | 1.12 ± 0.032 | 1.14 ± 0.027 | 1.12 ± 0.081 | 1.14 ± 0.044 | 0.677 ± 0.067 | 1.06 ± 0.021 | 1.05 ± 0.023 | 1.07 ± 0.032 | 1.04 ± 0.023 | 1.003 ± 0.01 | 0.984 ± 0.011 | 0.984 ± 0.017 | 0.917 ± 0.013 | 1.08 ± 0.048
PCI30 HEADNECK | 1.07 ± 0.075 | 1.12 ± 0.058 | 1.02 ± 0.028 | 1.1 ± 0.072 | 1.03 ± 0.024 |  | 0.6787 ± 0.0025 | 0.973 ± 0.043 | 0.969 ± 0.12 | 1.03 ± 0.016 | 1.02 ± 0.095 | 0.98 ± 0.069 | 0.92 ± 0.052 | 0.856 ± 0.057 | 0.744 ± 0.05 | 0.759 ± 0.055
RDES SOFT TISSUE |  | 1.24 ± 0.083 |  | 1.15 ± 0.11 |  | 1.16 ± 0.1 | 0.194 ± 0.047 | 1.16 ± 0.19 | 1.11 ± 0.23 | 1.14 ± 0.15 | 0.966 ± 0.14 | 0.85 ± 0.14 | 0.8 ± 0.093 | 1.01 ± 0.065 | 1.41 ± 0.088 | 1.44 ± 0.12
S68 BREAST | 0.895 ± 0.078 | 1.16 ± 0.3 | 1.04 ± 0.55 | 0.981 ± 0.1 | 1.17 ± 0.26 |  | 0.361 ± 0.049 | 0.986 ± 0.17 | 0.927 ± 0.014 | 0.925 ± 0.23 | 0.896 ± 0.16 | 0.941 ± 0.084 | 0.771 ± 0.26 | 0.715 ± 0.15 | 0.612 ± 0.097 | 0.417 ± 0.11
SAOS2 BONE | 1.14 ± 0.063 | 1.12 ± 0.023 | 1.2 ± 0.044 | 1.23 ± 0.068 | 1.34 ± 0.14 | 1.19 ± 0.1 | 0.1927 ± 0.00058 | 1.078 ± 0.0052 | 1.02 ± 0.022 | 1.16 ± 0.072 | 1.07 ± 0.042 | 0.882 ± 0.021 | 0.8217 ± 0.0046 | 0.753 ± 0.013 | 0.692 ± 0.027 | 0.541 ± 0.046
SCC003 HEADNECK | 1.07 ± 0.043 |  | 1.08 ± 0.13 | 1.06 ± 0.064 | 1.06 ± 0.045 | 1.09 ± 0.058 | 0.793 ± 0.044 | 1.14 ± 0.066 | 1.03 ± 0.079 | 1.01 ± 0.072 | 1.09 ± 0.11 | 1.13 ± 0.052 | 1 ± 0.046 | 0.974 ± 0.12 | 0.881 ± 0.083 | 0.929 ± 0.1
SCC36 HEADNECK | 1.05 ± 0.11 | 1.06 ± 0.026 | 1.2 ± 0.088 | 1.24 ± 0.1 | 1.13 ± 0.17 | 1.07 ± 0.22 | 0.301 ± 0.025 | 1 ± 0.045 | 0.993 ± 0.12 | 1.06 ± 0.018 | 0.948 ± 0.12 | 0.837 ± 0.1 | 0.697 ± 0.027 | 0.705 ± 0.066 | 0.596 ± 0.066 | 0.552 ± 0.072
SCC47 HEADNECK | 1.11 ± 0.056 | 1.08 ± 0.068 | 1.13 ± 0.048 | 1.16 ± 0.034 | 1.18 ± 0.018 | 1.15 ± 0.11 |  | 1.1 ± 0.09 | 0.994 ± 0.062 | 1.14 ± 0.042 | 1.07 ± 0.086 | 1.08 ± 0.098 | 0.989 ± 0.079 | 0.977 ± 0.043 | 1.03 ± 0.11 | 
SCC90 HEADNECK | 1.06 ± 0.036 | 0.972 ± 0.058 | 1.04 ± 0.087 | 1.1 ± 0.067 | 1.08 ± 0.0074 | 1.12 ± 0.066 | 0.762 ± 0.085 | 1.07 ± 0.066 | 1.04 ± 0.093 | 1.06 ± 0.062 | 1.1 ± 0.063 | 0.994 ± 0.037 | 0.942 ± 0.14 | 0.968 ± 0.087 | 0.931 ± 0.091 | 0.9977 ± 0.0097
SG27 HEADNECK | 1.25 ± 0.084 | 1.09 ± 0.11 |  | 1.14 ± 0.022 | 1.12 ± 0.17 | 1.11 ± 0.091 |  | 1 ± 0.049 | 1.05 ± 0.14 | 0.969 ± 0.093 | 0.991 ± 0.1 | 0.916 ± 0.074 | 0.995 ± 0.092 | 0.981 ± 0.22 | 1.02 ± 0.11 | 1.18 ± 0.13
SG28 HEADNECK | 1.06 ± 0.052 | 1.18 ± 0.1 |  | 1.22 ± 0.055 | 1.08 ± 0.025 | 1.15 ± 0.12 |  | 1.12 ± 0.13 | 0.982 ± 0.12 | 1.02 ± 0.09 | 0.952 ± 0.088 | 0.914 ± 0.13 | 0.887 ± 0.13 | 0.928 ± 0.024 | 0.926 ± 0.065 | 1.044 ± 0.0092
SG31 HEADNECK |  | 1.2 ± 0.13 | 1.01 ± 0.12 | 1.22 ± 0.24 | 1.17 ± 0.26 | 1.19 ± 0.18 | 0.6 ± 0.058 | 1.17 ± 0.27 | 1.09 ± 0.061 | 1.02 ± 0.12 | 0.985 ± 0.16 | 0.932 ± 0.18 | 0.908 ± 0.13 | 0.946 ± 0.073 | 0.962 ± 0.073 | 0.856 ± 0.073
